Columns and labels:
[1] = patients with inflamed meninges, single 3 g oral dose; cited from earlier work
[2] = Brain PET imaging in anesthetized baboons; details: for Blood-brain barrier penetration: healthy baboons, TAC, AUC and image
[3] = PPB determination in pooled baboon plasma; details: pooled baboon plasma, 10 min room temperature, % unbound
[4] = Torso PET imaging in anesthetized baboons; details: for Calculated drug concentration in heart / Calculated drug concentration in kidney cortex / Calculated drug concentration in kidney medulla / Calculated drug concentration in liver / Calculated drug concentration in lung / Calculated drug concentration in plasma: calculated assuming 5 mg/kg dose, 17 kg baboon; for Concentration in heart / Concentration in kidney cortex / Concentration in kidney medulla / Concentration in liver / Concentration in lung / Concentration in plasma: baboon, i.v.

SMILES: NC(=O)c1cnccn1 [PZA, pyrazinamide]
- CSF concentration of PZA [1]: 50 µg/mL
- Blood-brain barrier penetration ([2]; i.v.): excellent penetration
- PPB (value expressed as % of free fraction in plasma) [3]: 91.32%

SMILES: NN[11C](=O)c1ccncc1 [[^11C]INH]
- Calculated drug concentration in heart ([4]; 15 min): (8.72) µg/ml
- Calculated drug concentration in kidney cortex ([4]; 15 min): (15.06) µg/ml
- Calculated drug concentration in kidney medulla ([4]; 15 min): (18.94) µg/ml
- Calculated drug concentration in liver ([4]; 15 min): (12.50) µg/ml
- Calculated drug concentration in lung ([4]; 15 min): (7.72) µg/ml
- Calculated drug concentration in plasma ([4]; 15 min): (3.76) µg/ml
- Calculated drug concentration in heart ([4]; 30 min): (6.13) µg/ml
- Calculated drug concentration in kidney cortex ([4]; 30 min): (9.26) µg/ml
- Calculated drug concentration in kidney medulla ([4]; 30 min): (15.43) µg/ml
- Calculated drug concentration in liver ([4]; 30 min): (9.71) µg/ml
- Calculated drug concentration in lung ([4]; 30 min): (6.09) µg/ml
- Calculated drug concentration in plasma ([4]; 30 min): (2.96) µg/ml
- Calculated drug concentration in heart ([4]; 60 min): (3.74) µg/ml
- Calculated drug concentration in kidney cortex ([4]; 60 min): (7.72) µg/ml
- Calculated drug concentration in kidney medulla ([4]; 60 min): (16.37) µg/ml
- Calculated drug concentration in liver ([4]; 60 min): (7.64) µg/ml
- Calculated drug concentration in lung ([4]; 60 min): (4.42) µg/ml
- Calculated drug concentration in plasma ([4]; 60 min): (2.05) µg/ml
- Calculated drug concentration in heart ([4]; 90 min): (4.15) µg/ml
- Calculated drug concentration in kidney cortex ([4]; 90 min): (8.54) µg/ml
- Calculated drug concentration in kidney medulla ([4]; 90 min): (14.69) µg/ml
- Calculated drug concentration in liver ([4]; 90 min): (6.91) µg/ml
- Calculated drug concentration in lung ([4]; 90 min): (4.19) µg/ml
- Calculated drug concentration in plasma ([4]; 90 min): (1.62) µg/ml
- Concentration in heart ([4]; 15 min after administration): 0.0103 %ID/cc
- Concentration in kidney cortex ([4]; 15 min after administration): 0.0177 %ID/cc
- Concentration in kidney medulla ([4]; 15 min after administration): 0.0223 %ID/cc
- Concentration in liver ([4]; 15 min after administration): 0.0147 %ID/cc
- Concentration in lung ([4]; 15 min after administration): 0.0091 %ID/cc
- Concentration in plasma ([4]; 15 min after administration): 0.00442 %ID/cc
- Concentration in heart ([4]; 30 min after administration): 0.0072 %ID/cc
- Concentration in kidney cortex ([4]; 30 min after administration): 0.0109 %ID/cc
- Concentration in kidney medulla ([4]; 30 min after administration): 0.0181 %ID/cc
- Concentration in liver ([4]; 30 min after administration): 0.0114 %ID/cc
- Concentration in lung ([4]; 30 min after administration): 0.0072 %ID/cc
- Concentration in plasma ([4]; 30 min after administration): 0.00348 %ID/cc
- Concentration in heart ([4]; 60 min after administration): 0.0044 %ID/cc
- Concentration in kidney cortex ([4]; 60 min after administration): 0.0091 %ID/cc
- Concentration in kidney medulla ([4]; 60 min after administration): 0.0193 %ID/cc
- Concentration in liver ([4]; 60 min after administration): 0.0090 %ID/cc
- Concentration in lung ([4]; 60 min after administration): 0.0052 %ID/cc
- Concentration in plasma ([4]; 60 min after administration): 0.00241 %ID/cc
- Concentration in heart ([4]; 90 min after administration): 0.0049 %ID/cc
- Concentration in kidney cortex ([4]; 90 min after administration): 0.0100 %ID/cc
- Concentration in kidney medulla ([4]; 90 min after administration): 0.0173 %ID/cc
- Concentration in liver ([4]; 90 min after administration): 0.0081 %ID/cc
- Concentration in lung ([4]; 90 min after administration): 0.0049 %ID/cc
- Concentration in plasma ([4]; 90 min after administration): 0.0019 %ID/cc
- Estimated concentration in whole brain, C30min ([2]; 30 min, estimated from baboon weight, 5 mg/kg dose, signal assumed intact drug): 2.54 µg/mL
- Estimated concentration in whole brain, C60min ([2]; 60 min, estimated from baboon weight, 5 mg/kg dose, signal assumed intact drug): 2.11 µg/mL
- Estimated concentration in whole brain, C90min ([2]; 90 min, estimated from baboon weight, 5 mg/kg dose, signal assumed intact drug): 1.75 µg/mL
- Concentration in whole brain, C30min ([2]; baboon, i.v., 30 min): 0.00299 %ID/cc
- Concentration in whole brain, C60min ([2]; baboon, i.v., 60 min): 0.00248 %ID/cc
- Concentration in whole brain, C90min ([2]; baboon, i.v., 90 min): 0.00206 %ID/cc
- Blood-brain barrier penetration ([2]; i.v.): higher initial brain penetration and tissue accumulation when compared to RIF
